Test system: CD1 female mouse brain lipidome
Assay: Brain-region lipid levels (HPLC/MS/MS lipidomics) 2 h after single i.p. 3 mg/kg CP 55,940 vs vehicle
Assay type: in vivo
Set-up: N-arachidonoyl phenylalanine level, Mean / N-stearoyl tryptophan level, Mean / N-stearoyl proline level, Mean / N-stearoyl leucine level, Mean / N-stearoyl phenylalanine level, Mean / N-stearoyl serine level, Mean / N-stearoyl methionine level, Mean: unit: moles per gram
Details: cortex
Protocol: The Bloomington Institutional Animal Care and Use Committee of Indiana University reviewed and approved the animal procedures. Female mice from the CD1 strain were utilized to match our study examining THC’s effects on the brain lipidome ([Leishman et al., 2018]). Mice were given a single i.p. injection of either 3 mg/kg CP or 1:1:18 cremophor:ethanol:saline vehicle (please refer to the section “3 mg/kg CP Is Relevant for Synthetic Cannabinoid Abuse and Has Stronger Effects on the Female Mouse Brain Lipidome During Adolescence” for a justification of dose and use of female mice). Three different age groups were given injections: PND 35 and PND 50 adolescents, and adult mice (PND 113). At least eight mice in each age group received CP and at least eight received vehicle. Matching the THC study time course ([Leishman et al., 2018]), mice were sacrificed via rapid decapitation 2 h after injection. Brains were immediately removed and flash-frozen in liquid nitrogen, and then stored at -80°C until dissections were performed. Brains were dissected on an ice-cold dissection plate into the following regions: STR, HIPP, CER, THAL, CTX, HYP, MID, and STEM. These abbreviations for these brain areas will be used exclusively when discussing the results generated by these specific dissections. Each dissected area was immediately placed in liquid nitrogen and then stored at -80°C until used for lipid extraction.
Tissue extracts were performed as previously described ([Bradshaw et al., 2006]; [Stuart et al., 2013]; [Raboune et al., 2014]; [Leishman et al., 2016a],[b], [2017], [2018]). First, samples were shock frozen in liquid nitrogen, weighed, and transferred to a centrifuge tube. The mass of the largest sample was multiplied by 50 to determine how many milliliters of HPLC-grade methanol (Fisher, Fair Lawn, NJ, United States) to add. Then, samples were spiked with 500 pmol deuterium-labeled NAGly (d8NAGly; Cayman Chemical, Ann Arbor, MI, United States). Samples were placed on ice in darkness for 2 h then individually homogenized and centrifuged at 19,000 × g for 20 min at 20°C. Supernatants were diluted with HPLC water (purified in house) to make a solution of 75% water, 25% supernatant. Lipids were partially purified on C18 solid phase extraction columns (Agilent, Palo Alto, CA, United States). A series of four elutions with 1.5 mL of 60%, 75%, 85%, and 100% methanol were collected ([Stuart et al., 2013]; [Leishman et al., 2016a],[b], [2018]).
As previously described ([Bradshaw et al., 2006]; [Tan et al., 2006]; [Smoum et al., 2010]; [Stuart et al., 2013]; [Tortoriello et al., 2013]; [Raboune et al., 2014]; [Leishman et al., 2016a],[b], [2017], [2018]), samples were analyzed using an Applied Biosystems API 3000 triple quadrupole mass spectrometer with electrospray ionization (Foster City, CA, United States). Using an Agilent XDB-C18 reversed phase analytical column and optimized mobile phase gradients, 20 μL from each elution were chromatographed. Two Shimadzu 10ADvp pumps (Columbia, MD, United States) provided the pressure for gradient elution. Mobile phase A: 20% methanol, 80% water (v/v) and 1 mM ammonium acetate (Sigma, St. Louis, MO, United States). Mobile phase B: 100% methanol, 1 mM ammonium acetate. Every method run began with 0% mobile phase B, reached 100% mobile phase B flowing at 0.2 mL/min, and gradually returned to 0% mobile phase B.
This screening library will be referred to as the lipidome when discussing data from this study. HPLC/MS/MS data were analyzed using Analyst software (Applied Biosystems) ([Bradshaw et al., 2006]; [Tan et al., 2006]; [Stuart et al., 2013]; [Tortoriello et al., 2013]; [Raboune et al., 2014]; [Leishman et al., 2016a],[b], [2017], [2018]). Chromatograms (Supplementary Figure 3) were generated by determining the retention time of analytes from the analytical column with a [M-1] or [M+1] parent peak and a fragmentation peak corresponding to the programmed values. […]

[1] = PND 50, 3 mg/kg CP 55,940, ANOVA p .000
[2] = PND 50, 3 mg/kg CP 55,940, ANOVA p .002
[3] = PND 50, 3 mg/kg CP 55,940, ANOVA p .004
[4] = PND 50, 3 mg/kg CP 55,940, ANOVA p .040
[5] = PND 50 female mice, 3mg/kg CP 55,940

CCCCCCC(C)(C)c1ccc([C@@H]2C[C@H](O)CC[C@H]2CCCO)c(O)c1 [CP 55,940]
Arachidonic acid, Direction (relative to Veh) (PND 50, 3 mg/kg CP 55,940): ↓ | Linoleic acid, Direction (relative to Veh) (PND 50, 3 mg/kg CP 55,940): ↓ | N-arachidonoyl GABA Direction (relative to Veh) (PND 50, 3 mg/kg CP 55,940): ↓ | N-arachidonoyl alanine, Direction (relative to Veh) (PND 50, 3 mg/kg CP 55,940): ↓ | N-arachidonoyl ethanolamine, Direction (relative to Veh) (PND 50, 3 mg/kg CP 55,940): ↓ | N-arachidonoyl phenylalanine, Direction (relative to Veh) (PND 50, 3 mg/kg CP 55,940): ↓ | N-arachidonoyl taurine Direction (relative to Veh) (PND 50, 3 mg/kg CP 55,940): ↓ | N-docosahexaenoyl ethanolamine, Direction (relative to Veh) (PND 50, 3 mg/kg CP 55,940): ↓ | N-linoleoyl ethanolamine, Direction (relative to Veh) (PND 50, 3 mg/kg CP 55,940): ↓ | N-oleoyl ethanolamine, Direction (relative to Veh) (PND 50, 3 mg/kg CP 55,940): ↓ | N-oleoyl serine, Direction (relative to Veh) (PND 50, 3 mg/kg CP 55,940): ↑ | N-palmitoyl leucine, Direction (relative to Veh) (PND 50, 3 mg/kg CP 55,940): ↑ | N-palmitoyl methionine, Direction (relative to Veh) (PND 50, 3 mg/kg CP 55,940): ↑ | N-palmitoyl phenylalanine Direction (relative to Veh) (PND 50, 3 mg/kg CP 55,940): ↑ | N-palmitoyl tyrosine, Direction (relative to Veh) (PND 50, 3 mg/kg CP 55,940): ↑ | N-palmitoyl valine Direction (relative to Veh) (PND 50, 3 mg/kg CP 55,940): ↑ | N-stearoyl phenylalanine, Direction (relative to Veh) (PND 50, 3 mg/kg CP 55,940): ↑ | N-stearoyl valine Direction (relative to Veh) (PND 50, 3 mg/kg CP 55,940): ↑ | PGE2 Direction (relative to Veh) (PND 50, 3 mg/kg CP 55,940): ↓ | Linoleic acid, Magnitude (x Veh level) [1]: 0.57 x Veh level | N-palmitoyl leucine, Magnitude (x Veh level) [1]: 1.41 x Veh level | N-palmitoyl methionine, Magnitude (x Veh level) [1]: 1.43 x Veh level | N-oleoyl ethanolamine, Magnitude (x Veh level) [2]: 0.65 x Veh level | PGE2 Magnitude (x Veh level) [2]: 0.79 x Veh level | N-arachidonoyl GABA Magnitude (x Veh level) [3]: 0.86 x Veh level | N-arachidonoyl taurine Magnitude (x Veh level) [3]: 0.84 x Veh level | 2-linoleoyl glycerol Magnitude (x Veh level) (PND 50, 3 mg/kg CP 55,940, ANOVA p .005): 0.67 x Veh level | N-palmitoyl phenylalanine Magnitude (x Veh level) (PND 50, 3 mg/kg CP 55,940, ANOVA p .006): 1.39 x Veh level | N-arachidonoyl ethanolamine, Magnitude (x Veh level) (PND 50, 3 mg/kg CP 55,940, ANOVA p .007): 0.70 x Veh level | N-arachidonoyl alanine Magnitude (x Veh level) (PND 50, 3 mg/kg CP 55,940, ANOVA p .012): 0.75 x Veh level | N-docosahexaenoyl ethanolamine, Magnitude (x Veh level) (PND 50, 3 mg/kg CP 55,940, ANOVA p .014): 0.72 x Veh level | 2-oleoyl glycerol, Magnitude (x Veh level) (PND 50, 3 mg/kg CP 55,940, ANOVA p .018): 0.88 x Veh level | N-palmitoyl valine Magnitude (x Veh level) (PND 50, 3 mg/kg CP 55,940, ANOVA p .019): 1.37 x Veh level | N-stearoyl phenylalanine, Magnitude (x Veh level) (PND 50, 3 mg/kg CP 55,940, ANOVA p .039): 1.12 x Veh level | Arachidonic acid, Magnitude (x Veh level) [4]: 0.76 x Veh level | N-oleoyl serine, Magnitude (x Veh level) [4]: 1.09 x Veh level | N-arachidonoyl phenylalanine, Magnitude (x Veh level) (PND 50, 3 mg/kg CP 55,940, ANOVA p .044): 0.78 x Veh level | N-palmitoyl tyrosine Magnitude (x Veh level) (PND 50, 3 mg/kg CP 55,940, ANOVA p .053): 1.25 x Veh level | N-linoleoyl ethanolamine, Magnitude (x Veh level) (PND 50, 3 mg/kg CP 55,940, ANOVA p .066): 0.69 x Veh level | N-stearoyl valine Magnitude (x Veh level) (PND 50, 3 mg/kg CP 55,940, ANOVA p .067): 1.29 x Veh level | 2-arachidonoyl glycerol level, Mean [5]: 2.72E-09 | 2-linoleoyl glycerol level, Mean [5]: 9.55E-11 | 2-oleoyl glycerol level, Mean [5]: 1.53E-09 | 2-palmitoyl glycerol level, Mean [5]: 5.35E-09 | 6-ketoPGF1α level, Mean [5]: 5.34E-12 | 11-OH-THC level, Mean [5]: BDL | 11-nor-9-carboxyTHC level, Mean [5]: BDL | Arachidonic acid level, Mean [5]: 1.42E-09 | Cannabidiol level, Mean [5]: BDL | Linoleic acid level, Mean [5]: 9.48E-10 | N- stearoyl valine level, Mean [5]: 2.32E-13 | N-arachidonoyl GABA level, Mean [5]: 1.93E-11 | N-arachidonoyl alanine level, Mean [5]: 9.08E-13 | N-arachidonoyl dopamine level, Mean [5]: BDL | N-arachidonoyl ethanolamine level, Mean [5]: 1.23E-11 | N-arachidonoyl glycine level, Mean [5]: 3.26E-12 | N-arachidonoyl phenylalanine level, Mean [5]: 4.3E-13 | N-arachidonoyl proline level, Mean [5]: BDL | N-arachidonoyl serine level, Mean [5]: 1.27E-11 | N-arachidonoyl taurine level, Mean [5]: 5.99E-11 | N-arachidonoyl tryptophan level, Mean [5]: BDL | N-arachidonoyl tyrosine level, Mean [5]: 1.87E-13 | N-docosahexaenoyl GABA level, Mean [5]: 9.29E-12 | N-docosahexaenoyl ethanolamine level, Mean [5]: 1.26E-11 | N-docosahexaenoyl glycine level, Mean [5]: 3.17E-13 | N-docosahexaenoyl leucine level, Mean [5]: 3.29E-13 | N-docosahexaenoyl methionine level, Mean [5]: BDL | N-docosahexaenoyl phenylalanine level, Mean [5]: 4.81E-13 | N-docosahexaenoyl proline level, Mean [5]: BDL | N-docosahexaenoyl serine level, Mean [5]: 1.83E-11 | N-docosahexaenoyl tryptophan level, Mean [5]: BDL | N-docosahexaenoyl tyrosine level, Mean [5]: 3.22E-13 | N-docosahexaenoyl valine level, Mean [5]: PISSR | N-linoleoyl GABA level, Mean [5]: 6.54E-12 | N-linoleoyl ethanolamine level, Mean [5]: 1.61E-11 | N-linoleoyl glycine level, Mean [5]: 1.08E-13 | N-linoleoyl leucine level, Mean [5]: 7.72E-14 | N-linoleoyl methionine level, Mean [5]: BDL | N-linoleoyl phenylalanine level, Mean [5]: 1E-13 | N-linoleoyl proline level, Mean [5]: BDL | N-linoleoyl serine level, Mean [5]: 6.54E-11 | N-linoleoyl tryptophan level, Mean [5]: BDL | N-linoleoyl tyrosine level, Mean [5]: BDL | N-linoleoyl valine level, Mean [5]: PISSR | N-nervonoyl valine level, Mean [5]: BDL | N-oleoyl GABA level, Mean [5]: 1.38E-11 | N-oleoyl alanine level, Mean [5]: 1.52E-12 | N-oleoyl dopamine level, Mean [5]: BDL | N-oleoyl ethanolamine level, Mean [5]: 3.66E-11 | N-oleoyl glycine level, Mean [5]: 1.38E-12 | N-oleoyl leucine level, Mean [5]: 7.87E-13 | N-oleoyl methionine level, Mean [5]: 2.34E-13 | N-oleoyl phenylalanine level, Mean [5]: 1.02E-12 | N-oleoyl proline level, Mean [5]: BDL | N-oleoyl serine level, Mean [5]: 1.22E-10 | N-oleoyl tryptophan level, Mean [5]: BDL | N-oleoyl tyrosine level, Mean [5]: 3.4E-13 | N-oleoyl valine level, Mean [5]: 6.43E-14 | N-palmitoyl GABA level, Mean [5]: 1.74E-11 | N-palmitoyl alanine level, Mean [5]: 1.42E-12 | N-palmitoyl ethanolamine level, Mean [5]: 1.43E-11 | N-palmitoyl glycine level, Mean [5]: 6.08E-12
